Data: patent US20120121691A1, “Method for Increasing the Production of a Specific ACYL-Chain Dihydroceramide(s) for Improving the Effectiveness of Cancer Treatments” (priority 2010, published 2012)
Where two headings read alike, the source gives them in different places.

Key:
CCRF-CEM = test system: CCRF-CEM
Method: Statistical analyses. Descriptive statistics and significance testing were performed using Microsoft Excel. The Excel function “t.test” was used for Student's T-testing (two-tailed, type-2). Propagated standard deviations were calculated using standard methods. Correlation analyses were performed using Sigmaplot 11 software. […]
Due to the confounding effect of in vitro fatty acid conversion, correlation analyses were used to identify significant relationships between absolute levels of specific sphingolipids and cytotoxicity. […]

COG-LL-317 = format: cell-based, human
Method: (§1) Statistical analyses. […] Propagated standard deviations were calculated using standard methods. Correlation analyses were performed using Sigmaplot 11 software.

COG-LL-332 = format: cell-based, human
Method: as §1

MOLT-4 = format: cell-based, human
Method: as §1

| SMILES | Pearson Coef. (r), sphingolipid level vs cytotoxicity (CCRF-CEM) | Spearman Coef. (ρ), sphingolipid level vs cytotoxicity (CCRF-CEM) | Pearson Coef. (r), sphingolipid level vs cytotoxicity (COG-LL-317) | Spearman Coef. (ρ), sphingolipid level vs cytotoxicity (COG-LL-317) | Pearson Coefficient (r), sphingolipid level vs cytotoxicity (COG-LL-332) | Spearman Coefficient (ρ), sphingolipid level vs cytotoxicity (COG-LL-332) | Pearson Coef. (r), sphingolipid level vs cytotoxicity (MOLT-4) | Spearman Coef. (ρ), sphingolipid level vs cytotoxicity (MOLT-4) | Pearson Coef. (r), sphingolipid level vs cytotoxicity (CCRF-CEM; CCRF-CEM) | Spearman Coef. (ρ), sphingolipid level vs cytotoxicity (CCRF-CEM; CCRF-CEM) |
| --- | --- | --- | --- | --- | --- | --- | --- | --- | --- | --- |
| CCCCCCCCCCCCC/C=C/[C@@H](O)[C@H](CO)NC(=O)CCCCCCCCCCCCC [C14:0-Cer] | 0.03 | 0.01 | −0.54 | −0.43 | −0.32 | −0.28 | −0.53 | −0.48 | – | – |
| CCCCCCCCCCCCCCC[C@@H](O)[C@H](CO)NC(=O)CCCCCCCCCCCCC [C14:0-DHCer] | 0.12 | 0.20 | 0.16 | 0.10 | 0.06 | 0.18 | 0.13 | 0.35 | – | – |
| CCCCCCCCCCCCCC=CC(O)C(CO)NC(=O)CCCCCCCCCCCCCCC (stereo not drawn) [C16:0-Cer] | 0.25 | 0.03 | −0.48 | −0.50 | −0.09 | −0.05 | −0.62 | −0.76 | – | – |
| CCCCCCCCCCCCCCCC(=O)N[C@@H](CO)[C@H](O)CCCCCCCCCCCCCCC [C16:0-DHCer] | 0.26 | 0.37 | 0.03 | 0 | 0.45 | 0.62 | 0.26 | 0.57 | – | – |
| CCCCCCCCCCCCCC=CC(O)C(CO)NC(=O)CCCCCCCCCCCCCCCCC (stereo not drawn) [C18:0-Cer] | 0.14 | 0.07 | −0.45 | −0.60 | −0.54 | −0.38 | −0.33 | −0.45 | – | – |
| CCCCCCCCCCCCCCCCCC(=O)N[C@@H](CO)[C@H](O)CCCCCCCCCCCCCCC [C18:0-DHCer] | 0.22 | 0.15 | −0.22 | −0.38 | −0.16 | −0.16 | 0.12 | 0.14 | – | – |
| CCCCCCCCC=CCCCCCCCC(=O)NC(CO)C(O)C=CCCCCCCCCCCCCC (stereo not drawn) [C18:1-Cer] | 0.11 | 0.10 | −0.50 | −0.59 | −0.45 | −0.30 | −0.52 | −0.59 | – | – |
| CCCCCCCCCCCCCC=CC(O)C(CO)NC(=O)CCCCCCCCCCCCCCCCCCC (stereo not drawn) [C20:0-Cer] | 0.01 | 0.07 | −0.63 | −0.81 | −0.79 | −0.91 | −0.46 | −0.52 | – | – |
| CCCCCCCCCCCCCCCCCCCC(=O)N[C@@H](CO)[C@H](O)CCCCCCCCCCCCCCC [C20:0-DHCer] | 0.20 | 0.32 | −0.04 | 0.14 | −0.09 | 0 | 0.12 | 0.14 | – | – |
| CCCCCCCCCCCCCC=CC(O)C(CO)NC(=O)CCCCCCCCCCCCCCCCCCCCC (stereo not drawn) [C22:0-Cer] | 0.42 | 0.48 | 0.59 | 0.33 | 0.45 | 0 | 0.46 | 0.31 | – | – |
| CCCCCCCCCCCCCCCCCCCCCC(=O)N[C@@H](CO)[C@H](O)CCCCCCCCCCCCCCC [C22:0-DHCer] | 0.67 | 0.75 | 0.86 | 0.79 | 0.73 | 0.81 | 0.79 | 0.91 | – | – |
| CCCCCCCCC=CCCCCCCCCCCCC(=O)NC(CO)C(O)C=CCCCCCCCCCCCCC (stereo not drawn) [C22:1-Cer] | −0.23 | −0.24 | −0.28 | −0.60 | −0.14 | −0.26 | −0.32 | −0.48 | – | – |
| CCCCCCCCC=CCCCCCCCCCCCC(=O)NC(CO)C(O)CCCCCCCCCCCCCCC (stereo not drawn) [C22:1-DHCer] | −0.13 | 0.22 | −0.28 | −0.26 | 0.07 | 0.62 | −2.5 × 10^−3 | 0.24 | – | – |
| CCCCCCCCCCCCCC=CC(O)C(CO)NC(=O)CCCCCCCCCCCCCCCCCCCCCCC (stereo not drawn) [C24:0-Cer] | 0.40 | 0.41 | 0.48 | 0.25 | 0.39 | 0.38 | 0.33 | 0 | – | – |
| CCCCCCCCCCCCCCCCCCCCCCCC(=O)N[C@@H](CO)[C@H](O)CCCCCCCCCCCCCCC [C24:0-DHCer] | 0.58 | 0.84 | 0.89 | 0.91 | 0.74 | 0.83 | 0.79 | 0.88 | – | – |
| CCCCCCCCCCCCCCC[C@@H](O)[C@@H](N)COP(=O)(O)O [Sphingaine-1-P] | 0.44 | 0.38 | – | – | – | – | – | – | – | – |
| CCCCCCCCCCCCC/C=C/[C@@H](O)[C@@H](N)COP(=O)(O)O [Sphingosine-1-P] | – | – | – | – | – | – | – | – | −0.07 | 0.27 |
| CCCCCCCCCCCCC/C=C/[C@@H](O)[C@@H](N)CO [Sphingosine] | 0.02 | −0.19 | – | – | – | – | – | – | – | – |
